Experimental data as given in PMC10092294 (Biomaterials, 2023).

Columns and labels:
[1] = molecular target: T1, human Topo I (Homo sapiens, UniProt P11387); test: Topoisomerase I inhibition assay; assay type: biochemical; conditions: for Topo I inhibition: final drug concentration 100 μM
T1 sequence (P11387 1-765): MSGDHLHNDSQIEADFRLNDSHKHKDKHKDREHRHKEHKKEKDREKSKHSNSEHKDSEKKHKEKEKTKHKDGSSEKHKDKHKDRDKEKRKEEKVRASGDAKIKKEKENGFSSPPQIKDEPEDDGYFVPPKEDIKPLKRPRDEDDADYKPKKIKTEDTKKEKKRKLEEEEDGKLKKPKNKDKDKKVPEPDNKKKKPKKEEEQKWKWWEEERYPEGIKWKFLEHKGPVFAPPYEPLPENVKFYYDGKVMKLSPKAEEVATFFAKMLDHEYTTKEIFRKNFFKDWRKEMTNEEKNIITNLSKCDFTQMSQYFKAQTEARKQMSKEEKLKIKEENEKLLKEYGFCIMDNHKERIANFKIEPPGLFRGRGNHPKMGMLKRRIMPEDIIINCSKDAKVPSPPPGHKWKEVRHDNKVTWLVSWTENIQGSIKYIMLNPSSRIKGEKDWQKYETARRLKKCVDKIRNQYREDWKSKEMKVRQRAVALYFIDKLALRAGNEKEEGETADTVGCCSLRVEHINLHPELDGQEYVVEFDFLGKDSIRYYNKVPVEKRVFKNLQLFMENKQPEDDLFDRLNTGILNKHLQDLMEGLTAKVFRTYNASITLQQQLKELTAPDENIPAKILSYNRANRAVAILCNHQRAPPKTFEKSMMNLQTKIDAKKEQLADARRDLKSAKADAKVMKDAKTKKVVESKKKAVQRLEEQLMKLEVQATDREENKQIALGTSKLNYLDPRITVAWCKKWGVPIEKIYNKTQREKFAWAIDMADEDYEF

[2] = test system: microtubule assembly; conditions: cited from earlier work
[3] = test system: four different endometrial cancer cell lines; assay type: cell-based, human; conditions: 72 hours
[4] = molecular target: human Topo IIα (Homo sapiens, UniProt P11388); test: Topoisomerase II inhibition assay; assay type: biochemical; conditions: read-out: Topo II inhibition
[5] = test system: Hec50co GOFp53 cells; test: Cell cycle assay; assay type: cell-based, human; conditions: 10 nM PTX alone, 24 hours
[6] = test system: caspase-9; test: Caspase-9 activity in Hec50co LOFp53 cells; assay type: cell-based, human; conditions: 24 hours
[7] = test system: KLE GOFp53 cells; test: MTS cell viability assay, KLE GOFp53; assay type: cell-based; conditions: Homo sapiens, 72 h, read-out: cell viability
[8] = molecular target: tubulin (Sus scrofa, UniProt P02554); test: Fluorescence-based tubulin polymerization assay; assay type: biochemical; conditions: 3 μM
[9] = test system: Hec50co LOFp53 cells; test: Cell cycle assay; assay type: cell-based, human; conditions: 10 nM PTX alone, 24 hours
[10] = test system: Hec50co LOFp53 xenograft tumors; test: In vivo antitumor efficacy, human endometrial cancer xenograft model; design: species or system athymic Nu/Nu mice; conditions: five doses
[11] = test system: Hec50co LOFp53 cells; test: MTS cell viability assay, Hec50co LOFp53; assay type: cell-based; conditions: Homo sapiens, 72 h, read-out: cell viability
[12] = test system: Hec50co GOFp53 cells; test: MTS cell viability assay, Hec50co GOFp53; assay type: cell-based; conditions: Homo sapiens, 72 h, read-out: cell viability
[13] = test system: caspase-3; test: Caspase-3 activity in Hec50co LOFp53 cells; assay type: cell-based, human; conditions: 5 nM or 10 nM PTX alone, 72 hours

Sequence of human Topo IIα (P11388 whole entry): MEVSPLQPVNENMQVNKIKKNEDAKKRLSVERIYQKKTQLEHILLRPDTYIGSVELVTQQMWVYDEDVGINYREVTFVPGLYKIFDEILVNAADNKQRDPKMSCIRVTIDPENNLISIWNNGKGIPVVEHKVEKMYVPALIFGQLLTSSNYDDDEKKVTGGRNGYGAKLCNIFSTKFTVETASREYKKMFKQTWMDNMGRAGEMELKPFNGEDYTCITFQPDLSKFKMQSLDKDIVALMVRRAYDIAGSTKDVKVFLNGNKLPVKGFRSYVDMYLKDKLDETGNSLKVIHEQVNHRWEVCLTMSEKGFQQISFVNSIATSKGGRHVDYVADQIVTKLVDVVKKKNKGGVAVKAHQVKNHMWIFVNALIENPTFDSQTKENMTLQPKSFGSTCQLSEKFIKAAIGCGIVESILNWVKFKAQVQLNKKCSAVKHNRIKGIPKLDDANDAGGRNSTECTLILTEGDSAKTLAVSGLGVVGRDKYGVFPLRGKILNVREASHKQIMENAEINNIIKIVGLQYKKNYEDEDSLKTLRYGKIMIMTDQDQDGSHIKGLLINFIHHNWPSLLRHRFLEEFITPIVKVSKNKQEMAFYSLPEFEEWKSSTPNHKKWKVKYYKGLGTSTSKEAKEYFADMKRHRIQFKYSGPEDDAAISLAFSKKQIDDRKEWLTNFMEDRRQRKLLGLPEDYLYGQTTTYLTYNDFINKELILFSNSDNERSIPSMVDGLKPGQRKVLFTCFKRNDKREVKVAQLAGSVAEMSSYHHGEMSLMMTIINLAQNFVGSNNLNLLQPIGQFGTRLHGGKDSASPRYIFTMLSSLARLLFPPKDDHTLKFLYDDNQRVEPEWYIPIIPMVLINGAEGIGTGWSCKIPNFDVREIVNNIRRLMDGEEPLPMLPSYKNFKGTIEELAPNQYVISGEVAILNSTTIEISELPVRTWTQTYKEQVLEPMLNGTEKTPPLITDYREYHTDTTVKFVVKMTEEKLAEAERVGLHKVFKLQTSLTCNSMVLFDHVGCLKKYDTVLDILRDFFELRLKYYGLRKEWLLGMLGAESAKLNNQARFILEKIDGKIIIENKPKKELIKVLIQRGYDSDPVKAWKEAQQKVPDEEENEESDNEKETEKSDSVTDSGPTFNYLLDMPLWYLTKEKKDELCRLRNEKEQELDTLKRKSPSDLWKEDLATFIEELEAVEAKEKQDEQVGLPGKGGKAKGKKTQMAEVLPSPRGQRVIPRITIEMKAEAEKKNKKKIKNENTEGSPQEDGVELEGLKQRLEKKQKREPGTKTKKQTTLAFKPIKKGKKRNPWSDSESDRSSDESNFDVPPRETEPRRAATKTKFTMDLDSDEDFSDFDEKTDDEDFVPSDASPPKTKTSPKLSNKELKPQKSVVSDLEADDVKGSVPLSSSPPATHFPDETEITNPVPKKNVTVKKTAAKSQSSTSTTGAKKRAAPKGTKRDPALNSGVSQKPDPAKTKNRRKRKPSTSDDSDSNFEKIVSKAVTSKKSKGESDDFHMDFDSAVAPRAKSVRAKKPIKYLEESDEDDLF
Sequence of tubulin (P02554 whole entry): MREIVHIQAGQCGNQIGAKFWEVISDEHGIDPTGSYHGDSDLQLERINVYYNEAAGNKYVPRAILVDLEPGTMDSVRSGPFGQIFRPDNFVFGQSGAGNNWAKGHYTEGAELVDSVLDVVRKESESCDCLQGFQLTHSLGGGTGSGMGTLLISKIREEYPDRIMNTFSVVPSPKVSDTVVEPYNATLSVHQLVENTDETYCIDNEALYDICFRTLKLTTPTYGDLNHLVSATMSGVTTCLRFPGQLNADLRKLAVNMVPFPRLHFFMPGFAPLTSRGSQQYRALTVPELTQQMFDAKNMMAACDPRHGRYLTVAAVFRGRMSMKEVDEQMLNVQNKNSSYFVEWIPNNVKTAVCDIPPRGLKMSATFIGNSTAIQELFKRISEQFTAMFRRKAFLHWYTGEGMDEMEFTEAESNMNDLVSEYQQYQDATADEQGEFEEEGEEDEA
Sequence of tubulin (P02550 whole entry partner): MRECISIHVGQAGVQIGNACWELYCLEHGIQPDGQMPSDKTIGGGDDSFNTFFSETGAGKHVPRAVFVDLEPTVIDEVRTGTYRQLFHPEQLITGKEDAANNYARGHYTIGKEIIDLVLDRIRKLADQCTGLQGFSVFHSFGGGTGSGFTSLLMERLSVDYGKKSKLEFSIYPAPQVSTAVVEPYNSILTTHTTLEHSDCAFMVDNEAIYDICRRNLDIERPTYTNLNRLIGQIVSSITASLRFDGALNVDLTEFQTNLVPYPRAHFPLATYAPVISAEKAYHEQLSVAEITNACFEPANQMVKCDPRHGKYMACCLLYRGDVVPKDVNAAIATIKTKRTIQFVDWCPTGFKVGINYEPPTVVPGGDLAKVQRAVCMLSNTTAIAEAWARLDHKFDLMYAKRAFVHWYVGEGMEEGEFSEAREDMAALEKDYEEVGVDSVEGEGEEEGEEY

`CC[C@@]1(O)C(=O)OCc2c1cc1n(c2=O)Cc2cc3ccccc3nc2-1` [CAM, camptothecin] showed an inhibition at 100 µM ([1]; read-out: Topo I inhibition) of 52.6 ± 1.3%.
In the case of `O=C(O)c1cn(C2CC2)c2cc(N3CCNCC3)c(F)cc2c1=O` [CIP, ciprofloxacin], the “impact on microtubule assembly in cells” value [2] is listed as “does not impact”, the “Topo I inhibition” value [1] is listed as “no activity” and the “benefit of CIP alone or in combination with PTX in comparison to PTX alone” value [3] is listed as “no benefits”. It also gave an inhibition at 100 µM [4] of 62.3 ± 17.1%.
Compound `COc1cc([C@@H]2c3cc4c(cc3[C@@H](O[C@@H]3O[C@@H]5CO[C@@H](C)O[C@H]5[C@H](O)[C@H]3O)[C@H]3COC(=O)[C@H]23)OCO4)cc(OC)c1O` [ETO, etoposide] has an inhibition at 100 µM [4] of 96.3 ± 0.8%.
For `CC(=O)O[C@H]1C(=O)[C@@]2(C)[C@H]([C@H](OC(=O)c3ccccc3)[C@]3(O)C[C@H](OC(=O)[C@H](O)[C@@H](NC(=O)c4ccccc4)c4ccccc4)C(C)=C1C3(C)C)[C@]1(OC(C)=O)CO[C@@H]1C[C@@H]2O` [PTX, paclitaxel], the “cells in the G2/M phase” value [5] was 57.3 ± 1.1%, the “caspase-9 activity vs untreated” value ([6]; 5 nM PTX) was “did not show a significant difference” and the “caspase-9 activity vs untreated” value ([6]; 10 nM PTX) was “significant increase”. For the same compound, the viability at 0.01 µM [7] was 63.5 ± 0.6%, the “Topo I inhibition” value [1] was “no activity” and the “onset time of tubulin polymerization” value [8] was “approximately 5 minutes”. The “cells in the G2/M phase” value [9] was 43.7 ± 0.5%, the “average tumor volumes vs PBS group” value ([10]; 5 mg/kg PTX SC peritumoral) was “smaller than those in control mice injected with PBS, albeit not significantly” and the “average weight of tumors vs PBS group, day 53” value ([10]; 5 mg/kg PTX ± 5 mg/kg CIP2b SC peritumoral) was “not significantly different”. The viability at 0.01 µM [11] was 31.2 ± 4.1%, the viability at 0.01 µM [12] was 17.9 ± 1.4% and the “caspase-3 activity vs untreated” value [13] was “significantly higher”. The inhibition at 100 µM [4] was 8.3 ± 4.2%.
